Data from patent US20230098667A1, “BENZODIAZEPINE DERIVATIVES, COMPOSITIONS, AND METHODS FOR TREATING COGNITIVE IMPAIRMENT” (priority 2019, published 2023).
Entries after “also recorded” stand apart in the source; their conditions may differ.

Key:
aged-impaired (AI) rats [1] = test: Morris water maze behavioral task; format: in vivo, rat; settings: 100 μg ICV
Description: The effects of 6,6 dimethyl-3-(3-hydroxypropyl)thio-1-(thiazol-2-yl)-6,7-dihydro-2-benzothiophen-4(5H)-one on the in vivo spatial memory retention of aged-impaired (AI) rats were assessed in a Morris water maze behavioral task. A water maze is a pool surrounded with a novel set of patterns relative to the maze.
Cognitively impaired aged rats were implanted unilaterally with a cannula into the lateral ventricle. Stereotaxic coordinates were 1.0 mm posterior to bregma, 1.5 mm lateral to midline, and 3.5 mm ventral to the skull surface. After about a week of recovery, the rats were pre-trained in a water maze for 2 days (6 trials per day) to locate a submerged escape platform hidden underneath the surface of the pool, in which the escape platform location varied from day to day. No intracerebroventricular (ICV) infusion was given during pre-training.
After pre-training, rats received ICV infusion of either 100 μg 6,6 dimethyl-3-(3-hydroxypropyl)thio-1-(thiazol-2-yl)-6,7-dihydro-2-benzothiophen-4(5H)-one (n=6) in 5 μl DMSO or vehicle DMSO (n=5) 40 min prior to water maze training and testing. Training consisted of 8 trials per day for 2 days where the hidden escape platform remained in the same location. Rats were given 60 seconds to locate the platform with a 60 seconds inter-trial interval. The rats were given a probe test (120 seconds) 24 hr. after the end of training where the escape platform was removed. During the training, there were 4 blocks, where each block had 4 training trials.
During a test trial 24 hr. after training, the escape platform was removed. The search/swim pattern of the rats was used to measure whether the rats remember where the escape platform was located during pre-trial training in order to test for the long-term memory of the rats. In this trial, “target annulus” is a designated area 1.5 times the size of the escape platform around the area where the platform was located during pre-trial training. “Opposite annulus” is a control area of the same size as the size of the target annulus, which is located opposite to the target annulus in the pool. If the rats had good long term memory, they would tend to search in the area surrounding the location where the platform was during the pre-trial training (i.e., the “target” annulus; and not the “opposite” annulus). “Time in annulus” is the amount of time in seconds that the rat spent in the target or opposite annulus area. “Number (#) of crossings” in annulus is the number of times the rat swam across the target or opposite annulus area.

[2] = target: T1, GABAA receptors α5β3γ2 (GABA α5) (Homo sapiens, UniProt P18507+P31644); test: Binding activity on GABAAR: inhibition of [3H]Ro15-1788 binding, membranes of Ltk cells; settings: α5β3γ2 Ltk cell membranes
T1 construct: membranes
T1 sequence (P31644 32-462): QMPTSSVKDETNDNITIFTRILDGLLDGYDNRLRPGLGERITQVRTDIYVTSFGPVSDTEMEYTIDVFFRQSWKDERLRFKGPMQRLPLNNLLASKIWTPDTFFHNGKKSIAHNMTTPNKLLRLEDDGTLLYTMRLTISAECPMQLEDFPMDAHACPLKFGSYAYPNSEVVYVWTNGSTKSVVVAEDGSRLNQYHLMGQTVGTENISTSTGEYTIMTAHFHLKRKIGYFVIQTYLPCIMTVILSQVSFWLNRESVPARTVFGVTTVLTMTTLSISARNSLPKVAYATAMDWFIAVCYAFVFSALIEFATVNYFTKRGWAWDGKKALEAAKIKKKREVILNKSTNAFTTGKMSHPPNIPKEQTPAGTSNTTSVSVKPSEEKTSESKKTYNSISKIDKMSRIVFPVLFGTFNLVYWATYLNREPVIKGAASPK
T1 sequence (P28472 26-473 partner): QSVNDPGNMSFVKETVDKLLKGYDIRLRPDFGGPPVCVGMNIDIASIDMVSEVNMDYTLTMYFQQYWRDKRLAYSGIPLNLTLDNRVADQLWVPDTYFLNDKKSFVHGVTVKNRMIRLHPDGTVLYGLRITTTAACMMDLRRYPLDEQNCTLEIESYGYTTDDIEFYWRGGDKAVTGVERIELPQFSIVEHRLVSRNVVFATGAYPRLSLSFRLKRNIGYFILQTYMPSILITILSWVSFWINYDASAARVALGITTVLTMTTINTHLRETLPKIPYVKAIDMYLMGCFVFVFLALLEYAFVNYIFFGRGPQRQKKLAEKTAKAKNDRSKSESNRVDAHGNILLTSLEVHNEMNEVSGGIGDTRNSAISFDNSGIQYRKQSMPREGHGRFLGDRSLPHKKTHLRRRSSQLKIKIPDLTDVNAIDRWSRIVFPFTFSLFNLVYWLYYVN
T1 sequence (P18507 40-467 limits assumed): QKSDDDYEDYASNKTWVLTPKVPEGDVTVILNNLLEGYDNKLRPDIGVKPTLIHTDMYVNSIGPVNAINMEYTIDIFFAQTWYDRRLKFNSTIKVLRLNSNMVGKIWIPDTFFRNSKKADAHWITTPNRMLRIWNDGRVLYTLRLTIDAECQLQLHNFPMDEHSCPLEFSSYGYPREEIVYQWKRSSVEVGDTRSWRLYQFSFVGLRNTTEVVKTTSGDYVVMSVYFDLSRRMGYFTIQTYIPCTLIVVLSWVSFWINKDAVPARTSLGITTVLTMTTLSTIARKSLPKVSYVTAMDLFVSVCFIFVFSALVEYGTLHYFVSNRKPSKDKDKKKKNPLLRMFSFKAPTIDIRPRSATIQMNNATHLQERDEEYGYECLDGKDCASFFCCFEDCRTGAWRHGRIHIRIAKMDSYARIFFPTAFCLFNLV
Description: Tissue culture and Membrane Preparation: The binding was performed on Ltk cells stably expressing GABAA receptors: α1β1γ2, α2β3γ2, α3β3γ2 and α5β3γ2 (provided by Merck Co., NJ, USA). Cells were seeded in 100 mm culture plates in DMEM/F12 medium containing 10% serum and antibiotics in 5% CO2 and allowed to grow for 1-2 days. GABAAR expression was then induced by dexamethasone as follows: 0.5 μM for 1 day for α5 containing and 2 μM for 3 days for α1, α2 and α3 containing GABAARs. After induction, cells were collected by scraping into Dulbecco's Phosphate buffered saline (DPBS, pH 7.4, Invitrogen, Carlsbad, Calif., USA) and centrifuged at 150×g for 10 min. The pellet was washed twice by re-suspension and centrifugation. The cell pellets from at least 5 different preps were combined, suspended in the binding assay buffer (50 mM KH2PO4; 1 mM EDTA; 0.2 M KCl, pH 7.4) and membranes prepared by sonication (3-5 times, 30 sec) using Branson Sonifier 150 (G. Heinmann, Germany). Protein content was determined using BCA assay (Bio-Rad Labs, Reinach, Switzerland) with Bovine Serum Albumin (Sigma Aldrich, St. Louis, Mo., USA) as the standard. Aliquots were prepared and stored at −20° C. for further use in binding assays.
Ligand Binding: Saturation binding curves were obtained by incubating membranes with increasing concentrations (0.01-8 nM) of [^3H]Rol5-1788 (Flumazepil, 75-85 Ci/mmol, PerkinElmer, MA, USA), with nonspecific binding measured in the presence of 10 μM diazepam.
All binding assays were performed for 1 h at 4° C. in assay buffer. The total assay volume was 0.5 ml containing 0.2 mg/ml protein for α5 and 0.4 mg/ml for α1, α2, and α3 containing GABAAR membranes. Incubations were terminated by filtration through GF/B filters using a 24-Cell Harvestor (Brandel, Gaithersburg, Md., USA) followed by 3 washes with ice-cold assay buffer. Filters were transferred to scintillation vials, 5 ml scintillation liquid added, vortex-mixed and kept in dark. Next day, radioactivity was obtained using a scintillation counter (Beckman Coulter, Brea, Calif., USA). All assays were performed in triplicate.
Data Analyses: Saturation and inhibition curves were obtained using GraphPad Prism software (GraphPad Software, Inc., CA, USA).

GABAA α5 receptor = target: T2, GABAA α5 receptor (Rattus norvegicus, UniProt P19969); test: GABAA α5 receptor occupancy with Ro 15-4513 tracer; format: in vivo, Long Evans rats; settings: i.v.
T2 construct: from tissue; host or cells: brain of living Long Evans rats; hippocampus and cerebellum dissected after i.v. dosing
Excerpt: Food and water were available ad libitum.

aged-impaired (AI) rats [3] = test: Radial Arm Maze (RAM) behavioral task, four-hour delay; format: in vivo, rat
Description: The same experiment was repeated using the same vehicle control and doses of ethyl 3-methoxy-7-methyl-9H-benzo[f]imidazo[1,5-a][1,2,4]triazolo[4,3-d][1,4]diazepine-10-carboxylate, where the vehicle control was tested 5 times, the 3 mg/kg dose of ethyl 3-methoxy-7-methyl-9H-benzo[f]imidazo[1,5-a][1,2,4]triazolo[4,3-d][1,4]diazepine-10-carboxylate was tested 4 times, and the other doses of ethyl 3-methoxy-7-methyl-9H-benzo[f]imidazo[1,5-a][1,2,4]triazolo[4,3-d][1,4]diazepine-10-carboxylate were tested twice.
Parametric statistics (paired t-tests) was used to compare the retention test performance of the AI rats in the four-hour delay version of the RAM task in the context of different doses of ethyl 3-methoxy-7-methyl-9H-benzo[f]imidazo[1,5-a][1,2,4]triazolo[4,3-d][1,4]diazepine-10-carboxylate and vehicle control (see FIG. 5).

[4] = probe test 24 hr. after training

T2 sequence (P19969 32-464 limits assumed): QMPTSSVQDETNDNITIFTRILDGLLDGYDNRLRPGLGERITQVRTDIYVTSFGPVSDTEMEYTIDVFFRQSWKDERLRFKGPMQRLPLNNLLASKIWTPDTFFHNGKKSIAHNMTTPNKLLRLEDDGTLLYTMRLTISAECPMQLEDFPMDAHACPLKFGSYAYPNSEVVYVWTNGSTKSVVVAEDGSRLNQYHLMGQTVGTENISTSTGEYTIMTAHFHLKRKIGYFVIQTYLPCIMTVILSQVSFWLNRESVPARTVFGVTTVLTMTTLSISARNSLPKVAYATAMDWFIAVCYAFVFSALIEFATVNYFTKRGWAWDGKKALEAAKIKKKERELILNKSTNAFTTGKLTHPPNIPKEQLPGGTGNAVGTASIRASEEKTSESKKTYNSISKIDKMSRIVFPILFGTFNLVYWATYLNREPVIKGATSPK

SMILES: CC1(C)CC(=O)c2c(SCCCO)sc(-c3nccs3)c2C1 [6,6 dimethyl-3-(3-hydroxypropyl)thio-1-(thiazol-2-yl)-6,7-dihydro-2-benzothiophen-4(5H)-one]
- number of crossings of target annulus versus opposite annulus (aged-impaired (AI) rats [1]; [4]): crossed the “target annulus” more often
- time in target annulus versus opposite annulus (aged-impaired (AI) rats [1]; [4]): spent significantly more time in the target annulus
- time to find the escape platform (escape latency) (aged-impaired (AI) rats [1]; training block 1): about 24 seconds
- time to find the escape platform (escape latency) (aged-impaired (AI) rats [1]; training block 4): about 9.6 seconds

SMILES: COCc1nnc2n1Cc1c(C#Cc3cnc(OC)c(C(F)(F)F)c3)ncn1-c1ccc(OC)cc1-2 [Compound 731]
- Ki [2]: 100 to 1000 nM

SMILES: COc1ccc2c(c1)-n1nncc1Cc1c(C#Cc3cnc(OC)c(F)c3)ncn1-2 [Compound 732]
- Ki [2]: 100 to 1000 nM

SMILES: COc1ncc(C#Cc2ncn3c2Cc2cnnn2-c2cc(Cl)ccc2-3)cc1F [Compound 734]
- Ki [2]: < 100 nM

SMILES: COc1ccc2c(c1)-n1nncc1Cc1c(C#Cc3cn(C)nc3OC)ncn1-2 [Compound 735]
- Ki [2]: < 100 nM

SMILES: COCc1nnc2n1Cc1c(C#Cc3cn(C)nc3OC)ncn1-c1ccc(OC)cc1-2 [Compound 736]
- Ki [2]: < 100 nM

SMILES: COCc1nnc2n1Cc1c(C#Cc3cn(C)nc3OC)ncn1-c1ccc(Cl)cc1-2 [Compound 737]
- Ki [2]: < 100 nM

SMILES: COCc1nnn2c1Cc1c(C#Cc3cn(C)nc3OC)ncn1-c1ccc(Cl)cc1-2 [Compound 738]
- Ki [2]: < 100 nM

SMILES: COCc1nnn2c1Cc1c(C#Cc3cnc(C)n3C)ncn1-c1ccc(Cl)cc1-2 [Compound 740]
- Ki [2]: < 100 nM

SMILES: CCOC(=O)c1ncn2c1CN(C)C(=O)c1cc(N=[N+]=[N-])ccc1-2 [Ro 15-4513]
- levels of Ro 15-4513 in cerebellum (GABAA α5 receptor; tracer 1 μg/kg, after vehicle): 0.36 ± 0.02 ng/g
- levels of Ro 15-4513 in hippocampus (GABAA α5 receptor; tracer 1 μg/kg, after vehicle): 1.93 ± 0.05 ng/g
- levels of Ro 15-4513 in hippocampus compared with cerebellum (GABAA α5 receptor; tracer 1 μg/kg, after vehicle): > 5 fold

SMILES: CCOC(=O)c1ncn2c1Cn1c(C)nnc1-c1cc(OC)ccc1-2 [ethyl 3-methoxy-7-methyl-9H-benzo[f]imidazo[1,5-a][1,2,4]triazolo[4,3-d][1,4]diazepine-10-carboxylate]
- effect on Ro 15-4513 binding in hippocampus and cerebellum (GABAA α5 receptor; 0.01-10 mg/kg): reduced Ro 15-4513 binding in hippocampus, without affecting cerebellum levels of Ro 15-4513; also recorded: blocked the binding of Rol54513 in the hippocampus but did not affect binding of Rol5413 in the cerebellum
- GABAA α5 receptor occupancy (GABAA α5 receptor; 10 mg/kg): > 90%
- memory performance relative to vehicle control (aged-impaired (AI) rats [3]; 3 mg/kg): significantly improved memory performance
- memory performance relative to vehicle control (aged-impaired (AI) rats [3]; 10 mg/kg): significantly improved memory performance
